Patent US20040228868A1, “Apo-2L receptor agonist and CPT-11 synergism” (Genentech, Inc., priority 1999, published 2004)

Tested on: COLO205 colon carcinoma cells
Experiment: COLO205 colon carcinoma xenograft tumor growth in athymic nude mice (Example 1)
Format: in vivo, human
Conditions: Apo-2L 30 mg/kg/day days 0-4 and 7-11, CPT-11 80 mg/kg/day days 0, 4, 8; for animals in which tumor growth resumed several days after the treatment period: of 9 mice per group
Method: The colon carcinoma cell line COLO205 (available from NCI) were grown and maintained according to the supplier's methods. Briefly, COLO205 cells were cultured in high glucose DMEM/F12 (50:50) media containing 10% fetal bovine serum and 2.0 mM-L-Glutamine. […] Cell-paste containing recombinant human soluble Apo-2L was extracted with a buffer containing 0.1M Tris/0.2M NaCl/50 mM EDTA, pH 8.0. The extract was precipitated by 40% ammonium sulfate. […] Purity was determined by sodium-dodecyl sulfate (SDS)-polyacrylamide gel electrophoresis and silver-nitrate or coomassie-blue staining, by amino acid sequence analysis, and by size-exclusion on high performance liquid chromatography (HPLC). CPT-11 (Camptosar®) was obtained from Pharmacia & Upjohn.
Athymic nude mice (Jackson Laboratories) were injected subcutaneously with 5 million COLO205 colon carcinoma cells and the tumors allowed to grow to about 120 mm^3. Tumor-bearing mice were randomized into 4 groups at 9 mice per group and treated with either vehicle (20 mM Tris, 8% Trehalose, 0.01 Tween-20, pH 7.5), Apo-2L (30 mg/kg/day on days 0-4 and 7-11), or CPT-11 (80 mg/kg/day on days 0, 4, and 8), or a combination of Apo-2L (30 mg/kg/day on days 0-4 and 7-11) plus CPT-11 (80 mg/kg/day on days 0, 4, and 8). Tumor volumes were determined at the indicated days over 34 days.

| Compound | animals in which tumor growth resumed several days after the treatment period | effect on tumor growth (tumor volume, FIG. 1) (s.c. COLO205 tumors about 120 mm^3, 9 mice per group, followed 34 days) |
| --- | --- | --- |
| CCc1c2c(nc3ccc(OC(=O)N4CCC(N5CCCCC5)CC4)cc13)-c1cc3c(c(=O)n1C2)COC(=O)[C@]3(O)CC.Cl.O.O.O [CPT-11, (4S)-4,11-diethyl-4-hydroxy-9-[(4-piperidino-piperidino)carbonyloxyl]-1H-pyrano[3′,4′:6,7]indolizino[1,2-b]quinoline-3,14(4H,12H)dione hydrochloride trihydrate] | 9 animals | – |
| Apo-2L: recombinant human soluble Apo-2L, extracellular portion amino acids 114-281, prepared in E. coli | 9 animals | suppressed tumor growth during the treatment period |
